B1: pepMEK2, docking peptide derived from the upstream activating kinase MEK2 (peptide)
peptide: MLARRKPVLPALTINP
notes: docking peptide from MEK2 (MAP2K2), N-terminal stretch; Solubilised in 5% DMSO and diluted in buffer; source: synthetic peptide, bought: GenScript
B2: Kinase Interaction Motif (KIM) peptide of DUSP6 (peptide)
peptide: GIMLRRLQKGNLPVRAL
notes: Solubilised in 5% DMSO and diluted in buffer; also called KIM of DUSP6; KIM peptide DUSP6; source: synthetic peptide, bought: GenScript

How the values were obtained:
D321G = target: T1, D321G (Homo sapiens, UniProt P28482, D321G); experiment: biochemical; design: Differential scanning fluorimetry, SYPRO Orange, 2 uM ERK2, melting temperature shift with 12 uM inhibitor; conditions: for ΔTm at 12 µM: read-out: ΔTm D321G
T1 construct: gene MAPK1; recombinant ERK2 D321G
Method: (§1) After 10 min at room temperature, the increase in the fluorescence signal upon the temperature-dependent unfolding of ERK2 proteins was measured with an Mx3005p real-time PCR machine (Stratagene, San Diego, CA, USA).

D321N = target: T2, D321N (Homo sapiens, UniProt P28482, D321N); experiment: biochemical; design: Differential scanning fluorimetry, SYPRO Orange, 2 uM ERK2, melting temperature shift with 12 uM inhibitor; conditions: for ΔTm at 12 µM: read-out: ΔTm D321N
T2 construct: gene MAPK1; recombinant ERK2 D321N
Method: as §1

D321V = target: T3, D321V (Homo sapiens, UniProt P28482, D321V); experiment: biochemical; design: Differential scanning fluorimetry, SYPRO Orange, 2 uM ERK2, melting temperature shift with 12 uM inhibitor; conditions: for ΔTm at 12 µM: read-out: ΔTm D321V
T3 construct: gene MAPK1; recombinant ERK2 D321V
Method: (§2) After 10 min at room temperature, the increase in the fluorescence signal upon the temperature-dependent unfolding of ERK2 proteins was measured with an Mx3005p real-time PCR machine (Stratagene, San Diego, CA, USA). The ∆Tm shifts were calculated, as described, in [36].

[1] = target: T4, extracellular-signal-regulated kinase 2 (ERK2) E322K (Homo sapiens, UniProt P28482, E322K); experiment: biochemical; design: Differential scanning fluorimetry, SYPRO Orange, 2 uM ERK2, melting temperature shift with 12 uM inhibitor; conditions: for ΔTm at 12 µM: read-out: ΔTm E322K
T4 construct: gene MAPK1; recombinant ERK2 E322K
Method: as §2

D321A = target: T5, D321A (Homo sapiens, UniProt P28482, D321A); experiment: biochemical; design: Differential scanning fluorimetry, SYPRO Orange, 2 uM ERK2, melting temperature shift with 12 uM inhibitor; conditions: for ΔTm at 12 µM: read-out: ΔTm D321A
T5 construct: gene MAPK1; recombinant ERK2 D321A
Method: as §1

[2] = target: T6, extracellular-signal-regulated kinase 2 (ERK2) (Homo sapiens, UniProt P28482); experiment: biochemical; design: Differential scanning fluorimetry, SYPRO Orange, 2 uM ERK2, melting temperature shift with 12 uM inhibitor; conditions: for ΔTm at 12 µM: read-out: ΔTm WT
T6 construct: gene MAPK1; recombinant ERK2 wild-type
Method: as §1

D321E = target: T7, D321E (Homo sapiens, UniProt P28482, D321E); experiment: biochemical; design: Differential scanning fluorimetry, SYPRO Orange, 2 uM ERK2, melting temperature shift with 12 uM inhibitor; conditions: for ΔTm at 12 µM: read-out: ΔTm D321E
T7 construct: gene MAPK1; recombinant ERK2 D321E
Method: as §1

[3] = target: T8, non-phosphorylated ERK2 wild-type (extracellular-signal-regulated kinase 2) (human, UniProt P28482 1-360); experiment: ITC; Affinity ITC (TA-Instruments), reversed mode: ERK2 protein (90-145 µM) in the cell, peptide (500 µM) in the syringe; 30 °C; 20 mM Hepes pH 7.5, 0.15 M NaCl, 0.5 mM TCEP; single binding site model; conditions: both partners purified
T8 construct: ERK2 (MAPK1), human, wild-type; Expressed from pNIC28-Bsa4; also called NP-ERK2 wild-type; NP-ERK2; source: E. coli Rosetta with phosphatase, purified (Ni-NTA, TEV cleavage, second Ni-NTA); not shown: His6, N-terminal, cleaved

[4] = target: T9, phosphorylated ERK2 wild-type (human, UniProt P28482 1-360, phosphorylated at Thr185 and Tyr187); experiment: as above; conditions: both partners purified
T9 construct: ERK2 (MAPK1), human, wild-type, phosphorylated on T185 and Y187 by co-expressed active MEK1; also called P-ERK2 wild-type; P-ERK2; not shown: His6, N-terminal, cleaved

Row | Molecule | ΔTm at 12 µM (D321G) [°C] | ΔTm at 12 µM (D321N) [°C] | ΔTm at 12 µM (D321V) [°C] | ΔTm at 12 µM [1] [°C] | ΔTm at 12 µM (D321A) [°C] | ΔTm at 12 µM [2] [°C] | ΔTm at 12 µM (D321E) [°C] | ΔTm D321G (D321G; 12 µM, binder) [°C] | ΔTm D321N (D321N; 12 µM, binder) [°C] | ΔTm D321V (D321V; 12 µM, binder) [°C] | ΔTm E322K ([1]; 12 µM, binder) [°C] | ΔTm D321A (D321A; 12 µM, binder) [°C] | ΔTm WT ([2]; 12 µM, binder) [°C] | ΔTm D321E (D321E; 12 µM, binder) [°C] | Kd [3] [µM] | Kd [4] [µM]
1 | COC[C@H]1Cn2cc(-c3nc(Nc4ccnn4C)ncc3C)nc2C(=O)N1Cc1ccc(F)c(F)c1 [AZD0364] | 13.9 | 14.5 | 13 | 10.2 | 13.3 | 12.8 | 13.7 |  |  |  |  |  |  |  |  | 
2 | Nc1[nH]nc2nnc(-c3c(-c4ccccc4)nn4ccccc34)cc12 [FR 180204] | 4.6 | 5.4 | 5 | -1.3 | 3.2 | 2.8 | 3.7 |  |  |  |  |  |  |  |  | 
3 | Cn1nccc1Nc1nccc(-c2ccn([C@H](CO)c3ccc(Cl)c(F)c3)c(=O)c2)n1 [GDC-0994] |  |  |  |  |  |  |  | 11.80 | 12.20 | 10.30 | 6.80 | 10.70 | 10.30 | 11.20 |  | 
4 | O=C1Nc2cc3[nH]nc(-c4ccncc4)c3cc2CN1Cc1ccccc1 [KO-947] | 13.1 | 13.6 | 11.8 | 9.2 | 12.3 | 11.8 | 12.8 |  |  |  |  |  |  |  |  | 
5 | Cn1nccc1Nc1nccc(-c2cc3c(s2)C(C)(C)N(CCN2CCOCC2)C3=O)n1 [LY3214996] | 10.8 | 11.2 | 10 | 6.6 | 9.8 | 9.4 | 10.3 |  |  |  |  |  |  |  |  | 
6 | O=C(Nc1ccc2[nH]nc(-c3ccncc3)c2c1)[C@@H]1CCN(CC(=O)N2CCN(c3ccc(-c4ncccn4)cc3)CC2)C1 [SCH772984] | 12.2 | 12.7 | 11.6 | 8.7 | 11 | 11.6 | 11.7 |  |  |  |  |  |  |  |  | 
7 | CC(C)Nc1cc(-c2c[nH]c(C(=O)N[C@H](CO)c3cccc(Cl)c3)c2)c(Cl)cn1 [Ulixertinib] | 9.1 | 9.5 | 8.3 | 4.6 | 8.3 | 7.9 | 8.8 |  |  |  |  |  |  |  |  | 
8 | B1 |  |  |  |  |  |  |  |  |  |  |  |  |  |  | 23.7 | 
9 | B2 |  |  |  |  |  |  |  |  |  |  |  |  |  |  |  | 14.4

Reference: PMC10252016, “Mutation in the Common Docking Domain Affects MAP Kinase ERK2 Catalysis and Stability” (Cancers, 2023)
